# Laboratory results reported in patent US12168763B2, “Microorganisms and methods for reducing bacterial contamination” (Melio Peptide Systems Inc., priority 2020, dated 2024).
# Tested on: L. fermentum NCCB 46038
# Assay: Soft-agar overlay assay of S. cerevisiae BY4742 secreting persulcatusin variants from pHVXU plasmids
# Conditions: alanine scanning of persulcatusin; relative to wild-type; soft-agar overlay
row,Substance,Change in activity
1,H12A: persulcatusin (SEQ ID NO: 1) alanine-scan variant H12A (GFGCPFNQGACARHCRSIGRRGGYCAGLFKQTCTCYSR; listed as Ixodes persulcatus) [Mutation H12A],−
2,"Engineered persulcatusin with [Mutation F29A, Engineered persulcatusin with [F29A]]",+
3,H14A: persulcatusin (SEQ ID NO: 1) alanine-scan variant H14A (GFGCPFNQGACHRACRSIGRRGGYCAGLFKQTCTCYSR; listed as Ixodes persulcatus) [Mutation H14A],−
4,"Engineered persulcatusin with [Mutation R16A, Engineered persulcatusin with [R16A]]",+
5,C11A: persulcatusin (SEQ ID NO: 1) alanine-scan variant C11A (GFGCPFNQGAAHRHCRSIGRRGGYCAGLFKQTCTCYSR; listed as Ixodes persulcatus) [Mutation C11A],−
6,T32A: persulcatusin (SEQ ID NO: 1) alanine-scan variant T32A (GFGCPFNQGACHRHCRSIGRRGGYCAGLFKQACTCYSR; listed as Ixodes persulcatus) [Mutation T32A],−
7,N7A: persulcatusin (SEQ ID NO: 1) alanine-scan variant N7A (GFGCPFAQGACHRHCRSIGRRGGYCAGLFKQTCTCYSR; listed as Ixodes persulcatus) [Mutation N7A],−
8,"Engineered persulcatusin with [Mutation R21A, Engineered persulcatusin with [R21A]]",+
9,Y36A: persulcatusin (SEQ ID NO: 1) alanine-scan variant Y36A (GFGCPFNQGACHRHCRSIGRRGGYCAGLFKQTCTCASR; listed as Ixodes persulcatus) [Mutation Y36A],−
10,G22A: persulcatusin (SEQ ID NO: 1) alanine-scan variant G22A (GFGCPFNQGACHRHCRSIGRRAGYCAGLFKQTCTCYSR; listed as Ixodes persulcatus) [Mutation G22A],−
11,"Engineered persulcatusin with [Mutation R20A, Engineered persulcatusin with [R20A]]",+
12,K30A: persulcatusin (SEQ ID NO: 1) alanine-scan variant K30A (GFGCPFNQGACHRHCRSIGRRGGYCAGLFAQTCTCYSR; listed as Ixodes persulcatus) [Mutation K30A],−
13,G23A: persulcatusin (SEQ ID NO: 1) alanine-scan variant G23A (GFGCPFNQGACHRHCRSIGRRGAYCAGLFKQTCTCYSR; listed as Ixodes persulcatus) [Mutation G23A],−
14,C35A: persulcatusin (SEQ ID NO: 1) alanine-scan variant C35A (GFGCPFNQGACHRHCRSIGRRGGYCAGLFKQTCTAYSR; listed as Ixodes persulcatus) [Mutation C35A],−
15,"Engineered persulcatusin with [Mutation F6A, Engineered persulcatusin with [F6A]]",+
16,C25A: persulcatusin (SEQ ID NO: 1) alanine-scan variant C25A (GFGCPFNQGACHRHCRSIGRRGGYAAGLFKQTCTCYSR; listed as Ixodes persulcatus) [Mutation C25A],−
17,"Engineered persulcatusin with [Mutation R13A, Engineered persulcatusin with [R13A]]",+
18,S17A: persulcatusin (SEQ ID NO: 1) alanine-scan variant S17A (GFGCPFNQGACHRHCRAIGRRGGYCAGLFKQTCTCYSR; listed as Ixodes persulcatus) [Mutation S17A],−
19,Y24A: persulcatusin (SEQ ID NO: 1) alanine-scan variant Y24A (GFGCPFNQGACHRHCRSIGRRGGACAGLFKQTCTCYSR; listed as Ixodes persulcatus) [Mutation Y24A],−
20,C33A: persulcatusin (SEQ ID NO: 1) alanine-scan variant C33A (GFGCPFNQGACHRHCRSIGRRGGYCAGLFKQTATCYSR; listed as Ixodes persulcatus) [Mutation C33A],−
21,C15A: persulcatusin (SEQ ID NO: 1) alanine-scan variant C15A (GFGCPFNQGACHRHARSIGRRGGYCAGLFKQTCTCYSR; listed as Ixodes persulcatus) [Mutation C15A],−
22,G1A: persulcatusin (SEQ ID NO: 1) alanine-scan variant G1A (AFGCPFNQGACHRHCRSIGRRGGYCAGLFKQTCTCYSR; listed as Ixodes persulcatus) [Mutation G1A],−
23,Q31A: persulcatusin (SEQ ID NO: 1) alanine-scan variant Q31A (GFGCPFNQGACHRHCRSIGRRGGYCAGLFKATCTCYSR; listed as Ixodes persulcatus) [Mutation Q31A],−
24,F2A: persulcatusin (SEQ ID NO: 1) alanine-scan variant F2A (GAGCPFNQGACHRHCRSIGRRGGYCAGLFKQTCTCYSR; listed as Ixodes persulcatus) [Mutation F2A],−
25,T34A: persulcatusin (SEQ ID NO: 1) alanine-scan variant T34A (GFGCPFNQGACHRHCRSIGRRGGYCAGLFKQTCACYSR; listed as Ixodes persulcatus) [Mutation T34A],−
26,Q8A: persulcatusin (SEQ ID NO: 1) alanine-scan variant Q8A (GFGCPFNAGACHRHCRSIGRRGGYCAGLFKQTCTCYSR; listed as Ixodes persulcatus) [Mutation Q8A],−
27,"Engineered persulcatusin with [Mutation L28A, Engineered persulcatusin with [L28A]]",+

# Same assay, conditions: random mutagenesis clones of persulcatusin; increase of growth inhibition zones
row,Substance,Increase in Activity
1,"Engineered persulcatusin with [Mutation S7-140-34, Engineered persulcatusin with [R13S/R20T]]",++
2,"Engineered persulcatusin with [Mutation S7-140-8, Engineered persulcatusin with [R21G]]",+
3,"Engineered persulcatusin with [Mutation S7-144-4, Engineered persulcatusin with [G9D/R20S]]",++
4,"Engineered persulcatusin with [Mutation S7-140-18, Engineered persulcatusin with [N7D/R16S]]",+
5,"Engineered persulcatusin with [Mutation S7-140-7, Engineered persulcatusin with [R16G/F29V]]",+
6,"Engineered persulcatusin with [Mutation S7-192-26, Engineered persulcatusin with [F6L/G9D/H14Q]]",+++
7,"Engineered persulcatusin with [Mutation S7-144-59, Engineered persulcatusin with [R13S/R16K]]",+
8,"Engineered persulcatusin with [Mutation S7-192-4, Engineered persulcatusin with [N7D/H14F/R16S]]",++
9,"Engineered persulcatusin with [Mutation S7-140-42, Engineered persulcatusin with [N7D/F29L]]",++
10,"Engineered persulcatusin with [Mutation S7-140-9, Engineered persulcatusin with [A26D]]",+
11,"Engineered persulcatusin with [Mutation S7-176-4-1, Engineered persulcatusin with [F6V/R13S/A26D]]",++
12,"Engineered persulcatusin with [Mutation S7-156-22, Engineered persulcatusin with [G9D/I18F/F29L]]",+
13,"Engineered persulcatusin with [Mutation S7-156-36, Engineered persulcatusin with [F6S/R13S/R16K/I18V]]",++
14,"Engineered persulcatusin with [Mutation S7-144-75, Engineered persulcatusin with [R13S/A26D]]",++
15,"Engineered persulcatusin with [Mutation S7-192-7, Engineered persulcatusin with [G9D/H14Q]]",++
16,"Engineered persulcatusin with [Mutation S7-140-3, Engineered persulcatusin with [R20S/R21G]]",+
17,"Engineered persulcatusin with [Mutation S7-176-5-1, Engineered persulcatusin with [F6L/G9D/R20K]]",++
18,"Engineered persulcatusin with [Mutation S-176-2-1, Engineered persulcatusin with [F6V/R13S]]",++
19,"Engineered persulcatusin with [Mutation S7-144-43, Engineered persulcatusin with [R13S/L28M]]",+
20,"Engineered persulcatusin with [Mutation S7-140-10, Engineered persulcatusin with [R13S/R21G]]",+
21,"Engineered persulcatusin with [Mutation S7-176-3-1, Engineered persulcatusin with [R13S/R21S]]",++
22,"Engineered persulcatusin with [Mutation S7-144-11, Engineered persulcatusin with [R16S/R20S]]",++
23,"Engineered persulcatusin with [Mutation S7-140-1, Engineered persulcatusin with [R13S/I18N]]",+
